Experimental data reported in ChEMBL document CHEMBL1122054, “Lysosomotropic agents. 4. Carbobenzoxyglycylphenylalanyl, a new protease-sensitive masking group for introduction into cells” (J Med Chem, 1982).

Assays:
Mus musculus [1] = organism: Mus musculus; test: Toxicity toward P-815 Mastocytoma cells after 5 hr was determined as percent of [51Cr]- release from labeled cells as a measure of cell death at a concentration of 0.312 mM (expt IV); assay type: functional
Mus musculus [2] = organism: Mus musculus; test: Toxicity toward P-815 Mastocytoma cells after 5 hr was determined as percent of [51Cr]- release from labeled cells as a measure of cell death at a concentration of 0.312 mM (expt V); assay type: functional
Mus musculus [3] = organism: Mus musculus; test: Toxicity toward P-815 Mastocytoma cells after 5 hr was determined as percent of [51Cr]- release from labeled cells as a measure of cell death at a concentration of 0.208 mM (expt III); assay type: functional
Mus musculus [4] = organism: Mus musculus; test: Toxicity toward P-815 Mastocytoma cells after 5 hr was determined as percent of [51Cr]- release from labeled cells as a measure of cell death at a concentration of 0.208 mM (expt IV); assay type: functional
Mus musculus [5] = organism: Mus musculus; test: Toxicity toward P-815 Mastocytoma cells after 5 hr was determined as percent of [51Cr]- release from labeled cells as a measure of cell death at a concentration of 0.104 mM (expt IV); assay type: functional
Mus musculus [6] = organism: Mus musculus; test: Evaluated for the percent inhibition uptake of radiolabeled thymidine as a measure of inhibition of cell division against the SV40-transformed 3T3 cells after 4 hr at the concentration of 1x10E4M for experiment X; assay type: functional
Mus musculus [7] = organism: Mus musculus; test: Evaluated for the percent inhibition uptake of radiolabeled thymidine as a measure of inhibition of cell division against the SV40-transformed 3T3 cells after 4 hr at the concentration of 1x10E4M for experiment XI; assay type: functional, NIH3T3
Mus musculus [8] = organism: Mus musculus; test: Evaluated for the percent inhibition uptake of radiolabeled thymidine as a measure of inhibition of cell division against the SV40-transformed 3T3 cells after 4 hr at the concentration of 3x10E4M for experiment X; assay type: functional, NIH3T3
Mus musculus [9] = organism: Mus musculus; test: Evaluated for the percent inhibition uptake of radiolabeled thymidine as a measure of inhibition of cell division against the SV40-transformed 3T3 cells after 4 hr at the concentration of 3x10E4M for experiment XI; assay type: functional, NIH3T3
Mus musculus [10] = organism: Mus musculus; test: Evaluated for the percent inhibition uptake of radiolabeled thymidine as a measure of inhibition of cell division against the SV40-transformed 3T3 cells after 4 hr at the concentration of 6x10E4M for experiment X; assay type: functional
Mus musculus [11] = organism: Mus musculus; test: Evaluated for the percent inhibition uptake of radiolabeled thymidine as a measure of inhibition of cell division against the SV40-transformed 3T3 cells after 4 hr at the concentration of 6x10E4M for experiment XI; assay type: functional, NIH3T3
Mus musculus [12] = organism: Mus musculus; test: Evaluated for the percent inhibition uptake of radiolabeled thymidine as a measure of inhibition of cell division against the SV40-transformed 3T3 cells at 4 hr at the concentration of 10Mx10E4 for expt VII; assay type: functional, NIH3T3
Mus musculus [13] = organism: Mus musculus; test: Evaluated for the percent inhibition uptake of radiolabeled thymidine as a measure of inhibition of cell division against the SV40-transformed 3T3 cells at 4 hr at the concentration of 1Mx10E4 for expt VI; assay type: functional
Mus musculus [14] = organism: Mus musculus; test: Evaluated for the percent inhibition uptake of radiolabeled thymidine as a measure of inhibition of cell division against the SV40-transformed 3T3 cells at 4 hr at the concentration of 1Mx10E4 for expt VII; assay type: functional, NIH3T3
Mus musculus [15] = organism: Mus musculus; test: Evaluated for the percent inhibition uptake of radiolabeled thymidine as a measure of inhibition of cell division against the SV40-transformed 3T3 cells at 4 hr at the concentration of 3Mx10E4 for expt VI; assay type: functional, NIH3T3
Mus musculus [16] = organism: Mus musculus; test: Evaluated for the percent inhibition uptake of radiolabeled thymidine as a measure of inhibition of cell division against the SV40-transformed 3T3 cells at 4 hr at the concentration of 3Mx10E4 for expt VII; assay type: functional, NIH3T3
Mus musculus [17] = organism: Mus musculus; test: Evaluated for the percent inhibition uptake of radiolabeled thymidine as a measure of inhibition of cell division against the SV40-transformed 3T3 cells at 4 hr at the concentration of 4Mx10E4 for expt VII; assay type: functional, NIH3T3
Mus musculus [18] = organism: Mus musculus; test: Evaluated for the percent inhibition uptake of radiolabeled thymidine as a measure of inhibition of cell division against the SV40-transformed 3T3 cells at 4 hr at the concentration of 6Mx10E4 for expt VI; assay type: functional, NIH3T3
Mus musculus [19] = organism: Mus musculus; test: Evaluated for the percent inhibition uptake of radiolabeled thymidine as a measure of inhibition of cell division against the SV40-transformed 3T3 cells at 4 hr at the concentration of 6Mx10E4 for expt VII; assay type: functional, NIH3T3
Mus musculus [20] = organism: Mus musculus; test: Evaluated for the percent inhibition uptake of radiolabeled thymidine as a measure of inhibition of cell division against the SV40-transformed 3T3 cells at the concentration of 3*10^-4M after 24 hr; assay type: functional, NIH3T3
Mus musculus [21] = organism: Mus musculus; test: Evaluated for the percent inhibition uptake of radiolabeled thymidine as a measure of inhibition of cell division against the SV40-transformed 3T3 cells at the concentration of 3*10^-4M after 3h; assay type: functional, NIH3T3
Mus musculus [22] = organism: Mus musculus; test: Evaluated for the percent inhibition uptake of radiolabeled thymidine as a measure of inhibition of cell division against the SV40-transformed 3T3 cells at the concentration of 3*10^-4M after 4 hr; assay type: functional, NIH3T3
Mus musculus [23] = organism: Mus musculus; test: Evaluated for the percent inhibition uptake of radiolabeled thymidine as a measure of inhibition of cell division against the SV40-transformed 3T3 cells at the concentration of 3*10^-4M after 6 hr; assay type: functional, NIH3T3
Mus musculus [24] = organism: Mus musculus; test: Evaluated for the percent inhibition uptake of radiolabeled thymidine as a measure of inhibition of cell division against the SV40-transformed 3T3 cells at the concentration of 3*10^-4M after 8 hr; assay type: functional, NIH3T3
Mus musculus [25] = organism: Mus musculus; test: Evaluated for the percent inhibition uptake of radiolabeled leucine as a measure of inhibition of protein synthesis i.e., cell death against the SV40-transformed 3T3 cells at 4 hr at the concentration of 3Mx10E4 for expt VIII; assay type: functional, NIH3T3
Mus musculus [26] = organism: Mus musculus; test: Evaluated for the percent inhibition uptake of radiolabeled leucine as a measure of inhibition of protein synthesis i.e., cell death against the SV40-transformed 3T3 cells at 4 hr at the concentration of 6Mx10E4 for expt VII; assay type: functional, NIH3T3
Mus musculus [27] = organism: Mus musculus; test: Evaluated for the percent inhibition uptake of radiolabeled leucine as a measure of inhibition of protein synthesis i.e., cell death against the SV40-transformed 3T3 cells at 4 hr at the concentration of 6Mx10E4 for expt VIII; assay type: functional, NIH3T3
Mus musculus [28] = organism: Mus musculus; test: Evaluated for the percent inhibition uptake of radiolabeled thymidine as a measure of inhibition of cell division against the L1210 cells after 4 hr at the concentration of 0.5x10E4M; assay type: functional
Mus musculus [29] = organism: Mus musculus; test: Evaluated for the percent inhibition uptake of radiolabeled thymidine as a measure of inhibition of cell division against the L1210 cells after 4 hr at the concentration of 1.5x10E4M; assay type: functional
Mus musculus [30] = organism: Mus musculus; test: Evaluated for the percent inhibition uptake of radiolabeled thymidine as a measure of inhibition of cell division against the L1210 cells after 4 hr at the concentration of 3.0x10E4M; assay type: functional
Mus musculus [31] = organism: Mus musculus; test: Evaluated for the percent inhibition uptake of radiolabeled leucine as a measure of inhibition of protein synthesis i.e., cell death against the SV40-transformed 3T3 cells at 4 hr at the concentration of 1Mx10E4 for expt VII; assay type: functional, NIH3T3
Mus musculus [32] = organism: Mus musculus; test: Evaluated for the percent inhibition uptake of radiolabeled leucine as a measure of inhibition of protein synthesis i.e., cell death against the SV40-transformed 3T3 cells at 4 hr at the concentration of 1Mx10E4 for expt VIII; assay type: functional, NIH3T3
Mus musculus [33] = organism: Mus musculus; test: Evaluated for the percent inhibition uptake of radiolabeled leucine as a measure of inhibition of protein synthesis i.e., cell death against the SV40-transformed 3T3 cells at 4 hr at the concentration of 3Mx10E4 for expt VII; assay type: functional, NIH3T3
Mus musculus [34] = organism: Mus musculus; test: Toxicity was evaluated for the compound at a concentration of 0.104 mM against […] Mastocytoma.; assay type: functional
Mus musculus [35] = organism: Mus musculus; test: Toxicity was evaluated for the compound at a concentration of 0.208 mM against […] Mastocytoma.; assay type: functional
Mus musculus [36] = organism: Mus musculus; test: Toxicity was evaluated for the compound at a concentration of 0.312 mM against […] Mastocytoma.; assay type: functional

O=C(CNC(=O)OCc1ccccc1)N[C@H](Cc1ccccc1)C(=O)N(CCCl)CCCl
Cr release (Mus musculus [1]): 34% | Cr release (Mus musculus [2]): 19% | Cr release (Mus musculus [3]): 29% | Cr release (Mus musculus [4]): 27% | Cr release (Mus musculus [5]): 22% | Inhibition uptake (Mus musculus [6]): 14% | Inhibition uptake (Mus musculus [7]): 36% | Inhibition uptake (Mus musculus [8]): 46% | Inhibition uptake (Mus musculus [9]): 36% | Inhibition uptake (Mus musculus [10]): 90% | Inhibition uptake (Mus musculus [11]): 75% | Inhibition uptake (Mus musculus [12]): 92% | Inhibition uptake (Mus musculus [13]): 7% | Inhibition uptake (Mus musculus [14]): 12% | Inhibition uptake (Mus musculus [15]): 60% | Inhibition uptake (Mus musculus [16]): 46% | Inhibition uptake (Mus musculus [17]): 61% | Inhibition uptake (Mus musculus [18]): 93% | Inhibition uptake (Mus musculus [19]): 70% | Inhibition uptake (Mus musculus [20]): 88% | Inhibition uptake (Mus musculus [21]): 76% | Inhibition uptake (Mus musculus [22]): 80% | Inhibition uptake (Mus musculus [23]): 83% | Inhibition uptake (Mus musculus [24]): 86% | Inhibition uptake (Mus musculus [25]): 33% | Inhibition uptake (Mus musculus [26]): 36% | Inhibition uptake (Mus musculus [27]): 83% | Inhibition uptake (Mus musculus [28]): 28% | Inhibition uptake (Mus musculus [29]): 57% | Inhibition uptake (Mus musculus [30]): 76% | Inhibition uptake (Mus musculus [31]): -1% | Inhibition uptake (Mus musculus [32]): 5% | Inhibition uptake (Mus musculus [33]): 10% | Toxicity (Mus musculus [34]): 50 µg/mL | Toxicity (Mus musculus [35]): 100 µg/mL | Toxicity (Mus musculus [36]): 150 µg/mL
